Consider five molecules from patent US20040191843A1, “Cell-killing molecules and methods of use thereof” (Palo Alto Institute of Molecular Medicine, priority 2003, published 2004).

“Also recorded” adds a separate entry of the source. Like-named read-outs stand apart in the source and are kept apart here.

One data set concerns SK Hep-1. Put plainly: 48 h MTT dye reduction assay. Type of data set: cell-based. The settings on record: Homo sapiens, SK-HEP1, read-out: IC50 Values ± SEM (n). An excerpt:
(§1) The cytotoxic activity of rADF-Ant was compared to several chemotherapeutic drugs on a panel of three HCC cell lines.
On the technique in general: Formazan colour is commonly taken as a measure of viable cells.

In the next data set the test system is Hep3B. The data set is described as follows: 48 h MTT dye reduction assay. In kind it is cell-based. The settings on record: Homo sapiens.
Excerpt: as §1
(§2) Without limiting the invention to any particular mechanism, another possible mechanism of resistance is expression of the multidrug resistance associated protein (MRP). This protein is thought to exert a function similar to the p-glycoprotein, and is expressed at high levels in the HepG2 and SK Hep-1 cell lines (Takeuchi, et al., 1999, J Gastroenterol 34:351-358). Increased expression of thioredoxin, which functions as a cellular defense mechanism against oxidative stress, may also protect HCC's from some chemotherapeutic agents (Kawahara, et al., 1996, Cancer Res 56:5330-5333). Expression of different xenobiotic enzymes (e.g. cytochrome P-450 and glutathione S-transferase) may also contribute to the intrinsic drug resistance of HCC (Murray, et al., 1993, Cancer 71:36-43). Additional studies explored whether the high intrinsic levels of drug resistance in the HCC lines can be even further augmented by adherence to ECM protein. Overexpression of b1 integrin and its role in the progression of HCC has been reported (Patriarca, et al., 1993, J Pathol 171:5-11). Overexpression of b1-integrin in several HCC lines (including HepG2) protected them from chemotherapeutic drug-induced apoptosis via a MAP kinase-dependent pathway (Zhang, et al., 2002, Cancer 95:896-906). Knockout of a6b1-integrin expression reversed the transformed phenotype of HepG2 cells (Carloni et al., 1998, Gastroenterology. 115:433-442). […] These properties of HCCs may contribute to the marked changes in amount and distribution of ECM components found in the stroma of HCC as compared to normal liver (Jaskiewicz, et al., 1993, Anticancer Res 13:2229-2238). Thus, the combination of increased expression of integrins in HCCs as well as abnormalities in the surrounding ECM may create an environment that both promotes tumor growth and inhibits apoptosis. Therefore, the inventors tested HepG2 and Hep3B for drug sensitivity when assayed on plates coated with BSA as a control, or on FN as described above for U937 cells.

A further data set has as its system HepG2. Put plainly: 48 h MTT dye reduction assay. Type of data set: cell-based. The conditions noted are these: Homo sapiens.
Excerpt: as §1, §2

Another data set relates to U9-NAD -. Put plainly: DNA fragmentation in whole cells (release of 3H-labeled DNA fragments, 4 h). Type of data set: cell-based. The settings on record: Homo sapiens, read-out: IC50 Value (minimal concentration to cause 50% DNA fragmentation). As to the method:
(§3) DNA fragmentation in whole cells or normal nuclei isolated from U937 or MCF-7 cells was assayed by release of (3H)thymidine-labeled DNA fragments as described in detail previously (Wright et al. (1994) J. Exp. Med. 180, 2113-2123). DNA fragmentation induced by rADF treatment of isolated nuclei for four h was analyzed by agarose electrophoresis as described in detail previously (Wright et al. (1994) supra). In four h assays using isolated nuclei, the buffer was supplemented with an ATP regenerating system (2 mM ATP, 10 mM phosphocreatine, and 50 μg/ml creatine kinase).
(§4) Another mechanism whereby cancer cells may resist apoptosis is through overexpression of heat shock (HS) proteins which have been found at high levels in most tumor cell biopsies (Jaattela, et al., 1999, Exp Cell Res 248:30-43). […] We have studied the mechanisms of apoptosis resistance using several variants derived from the U937 cell line. Variants generated by prolonged growth in the presence of TNF (U9-TR) or by nutritional depletion of intracellular NAD content (U9-NAD-) have been described in the literature previously (Wright, et al., 1992, Cancer Immunol Immunother 34:399-406; Wright, et al., 1996b, J. Exp. Med. 183: 463-477). Both of these variants were resistant to apoptosis induced by diverse agents, such as chemotherapeutic drugs, UV light, and TNF.

In the next data set the test system is MES-SA/Dx5 (MDR1 high). Put plainly: cells. The conditions noted are these: 48 h, read-out: IC50 Values. An excerpt: (§5) One of the most frequently reported alterations associated with multidrug resistance is increased expression of the 170 kDa membrane protein called P-glycoprotein encoded by the MDR1 gene. It functions as an energy-dependent drug efflux pump that reduces intracellular drug accumulation, thereby causing resistance to many structurally unrelated drugs (Roninson, et al., 1986, Proc Natl Acad Sci 83:4538-4542). To determine if MDR1 overexpressing cells were sensitive to rADF, the inventors tested the parental drug-sensitive uterine sarcoma, MES-SA, compared to a variant selected by culturing in doxorubicin, MES-SA/Dx5, described previously (Chen et al., 1997).

In another data set the test system is U9-TR. Put plainly: DNA fragmentation in whole cells (release of 3H-labeled DNA fragments, 4 h). The conditions noted are these: Homo sapiens; U9-TR; 4 hr; read-out: IC50 Value (minimal concentration to cause 50% DNA fragmentation). Type of data set: cell-based, human. As to the method: as §3, §4
Data set [1] relates to U937 cells. Described as above. Type of data set: cell-based, human. The conditions noted are these: for IC50: Homo sapiens, U-937, 4 h. As to the method: as §3
The next data set deals with HL-60 Bcl-2. The description is as above. Type of data set: cell-based. The conditions noted are these: Homo sapiens.
For the next data set, the system named is HL-60 neo. The data set is described as above. In kind it is cell-based. The conditions noted are these: Homo sapiens.
A further data set concerns MES-SA (parental). The data set is described as follows: 48 h MTT dye reduction assay. Type of data set: cell-based. The settings on record: Homo sapiens.
Excerpt: as §5

In data set [2] the test system is U937 cells. The data set is described as follows: Viability by trypan blue exclusion after 4 h treatment. Type of data set: cell-based, human. The settings on record: for IC50: Homo sapiens, U-937, trypan blue, 4 h.
Another data set deals with isolated U937 nuclei. The data set is described as follows: DNA fragmentation in isolated nuclei (release of 3H-labeled DNA fragments; agarose gel). In kind it is biochemical, human. The method, then: as §3
ADF was purified from 2.9 mg of pig heart mitochondrial MDH obtained from Worthington Enzymes, New Jersey. Protein was fractionated by gel filtration on a Tosohaas G2000SWXL 7.8 mm×300 mm HPLC column, and each fraction tested for DNA fragmentation in isolated U937 nuclei (ADF activity) and for MDH enzyme activity. Active fractions were pooled and applied to a reverse phase C4 Brownlee 2.1 mm×220 mm column equilibrated in H2O+0.0075% trifluoroacetic acid pH 6.5, and eluted with a linear gradient to 40% acetonitrile.
In preliminary studies, the inventors observed that supernatants of normal mitochondria derived from cultured cells or freshly isolated liver cells incubated in vitro contained activity that induced internucleosomal DNA cleavage in isolated U937 nuclei. […] To ascertain that the DNA fragmenting activity of MDH was not due to a contaminating nuclease, the inventors purified the commercial enzyme to determine the source of the ADF activity.
Therefore, it is likely that ADF directly or indirectly activates endonucleases present in isolated nuclei.

The next data set concerns naked DNA. The data set is described as follows: DNase assay on naked DNA substrate (rADF alone or extracts of rADF-treated U937 nuclei). In kind it is biochemical, human.
Another data set relates to isolated MCF-7 nuclei. Put plainly: DNA fragmentation in isolated nuclei (release of 3H-labeled DNA fragments). The settings on record: nuclei from MCF-7 cells (no caspase 3); four h assay. Type of data set: biochemical, human.
A further data set concerns ICAD/DFF45. Put plainly: Western blot for ICAD cleavage in rADF-treated nuclei. Type of data set: biochemical, human. The conditions noted are these: U937 nuclei treated with rADF. In general terms: Immunoblotting shows a protein as a band on a membrane.
The mark [3] stands for this setting: Hep3B (BSA) plate coating, read-out: IC50 Values.
[4] abbreviates: Hep3B (FN) plate coating, read-out: IC50 Values.
[5] abbreviates: read-out: IC50 Values ± SEM (n).
The mark [6] stands for this setting: HepG2, 48 h, HepG2 (BSA) plate coating, read-out: IC50 Values.
Setting [7] is: HepG2, 48 h, HepG2 (FN) plate coating, read-out: IC50 Values.
[8] abbreviates: HepG2, 48 h, HepG2, read-out: IC50 Values ± SEM (n).

In the case of `O=c1[nH]cc(F)c(=O)[nH]1` [5-FU, 5-fluorouracil], the IC50 in the data set on SK Hep-1 is 203 µM; in the data set with Hep3B (setting [3]), 490 µM; in the data set with Hep3B (setting [4]), over 2 µM; in the data set on Hep3B (setting [5]), 410 µM; in the data set with HepG2 (setting [6]) it was 515 µM; in the data set on HepG2 (setting [7]), over 2 µM. Also, the IC50 with HepG2 (setting [8]) amounted to 620 µM.

Take `COc1cccc2c1C(=O)c1c(O)c3c(c(O)c1C2=O)C[C@@](O)(C(=O)CO)C[C@@H]3O[C@H]1C[C@H](N)[C@H](O)[C@H](C)O1` [Dox, doxorubicin]: the IC50 in the data set with SK Hep-1 was 73 µM; in the data set on Hep3B (setting [3]), 86 µM; with Hep3B (setting [4]), over 400 µM; in the data set with Hep3B (setting [5]), 80 µM; in the data set with HepG2 (setting [6]), 104 µM; with HepG2 (setting [7]), over 400 µM. In addition, the IC50 in the data set on HepG2 (setting [8]) is 122 µM.

`COc1cc([C@@H]2c3cc4c(cc3[C@@H](O[C@@H]3O[C@@H]5CO[C@@H](C)O[C@H]5[C@H](O)[C@H]3O)[C@H]3COC(=O)[C@H]23)OCO4)cc(OC)c1O` [Etoposide, etoposide]: the IC50 in the data set with U9-NAD - was over 500 µM; with MES-SA/Dx5 (MDR1 high) it was over 500 µM; with U9-TR it was over 500 µM; in the data set on SK Hep-1, 58 µM; in the data set on Hep3B (setting [3]), 210 µM; with Hep3B (setting [4]), 840 µM. The IC50 in the data set with Hep3B (setting [5]) turned out to be 95 µM; with HepG2 (HepG2 (BSA) plate coating, read-out: IC50 Values), 35 µM; with HepG2 (HepG2, read-out: IC50 Values ± SEM (n)) it was 231 µM; with U937 cells [1] (U937, 4 hr, read-out: IC50 Value (minimal concentration to cause 50% DNA fragmentation)), 12 µM; with U937 cells [1] (U937 on BSA, 4 h DNA fragmentation, read-out: IC50 Values), 4 µM; in the data set on U937 cells [1] (U937 on FN, 4 h DNA fragmentation, read-out: IC50 Values) it was 15 µM. For the same molecule, the IC50 in the data set on HL-60 Bcl-2 stood at 380 µM; in the data set with HL-60 neo, 26 µM; in the data set on MES-SA (parental), 59 µM; in the data set with U937 cells [2] (U937 + PMA (10 nM, 3 days)), 510 µM; with U937 cells [2] (U937), 4 µM. Moreover, the “fold higher concentration to induce 50% DNA fragmentation” value in the data set with U937 cells [1] (cells adhering to FN vs plated on BSA) is “about 5 fold”. Moreover, the “factor of resistance of PMA-treated cells” value in the data set on U937 cells [2] (PMA-treated vs normal U937) was determined as 127 fold.

B1: MDH derived from porcine heart mitochondria: commercial preparation of mitochondrial malate dehydrogenase (Worthington Enzymes) (protein, UniProt P00346 25-338, looked up)
Malate dehydrogenase, …: AKVAVLGASGGIGQPLSLLLKNSPLVSRLTLYDIAHTPGVAADLSHIETRATVKGYLGPEQLPDCLKGCDVVVIPAGVPRKPGMTRDDLFNTNATIVATLTAACAQHCPDAMICIISNPVNSTIPITAEVFKKHGVYNPNKIFGVTTLDIVRANAFVAELKGLDPARVSVPVIGGHAGKTIIPLISQCTPKVDFPQDQLSTLTGRIQEAGTEVVKAKAGAGSATLSMAYAGARFVFSLVDAMNGKEGVVECSFVKSQETDCPYFSTPLLLGKKGIEKNLGIGKISPFEEKMIAEAIPELKASIKKGEEFVKNMK
As to B1, the “concentrations dose-dependently inducing nuclear DNA fragmentation” value with isolated U937 nuclei (isolated nuclei) fell in the range of 2 to 10 µg/mL.

B2: rADF: recombinant human activator of DNA fragmentation, 9 kDa C-terminal fragment of mitochondrial MDH, SEQ ID NO:7 (protein, listed as Homo sapiens)
chain: KAKAGAGSATLSMAYAGARFVFSLVDAMNGKEGVVECSFVKSQETECTYFSTPLLLGKKGIEKNLGIGKVSSFEEKMISDAIPELKASIKKGEDFVKTLK
Regarding B2, the “DNase activity on naked DNA of extracts from treated nuclei” value in the data set on naked DNA (U937 nuclei incubated with rADF 20 h) is listed as “digested naked DNA”. Besides, in the data set on naked DNA (rADF without nuclei), the “digestion of naked DNA by rADF itself” value is listed as “did not digest naked DNA; also recorded: little or no activity”. The “activation of nuclear DNA fragmentation” value in the data set with isolated MCF-7 nuclei was “dose-dependent activation”; in the data set on isolated U937 nuclei (nuclei from U937 cells, four h assay), “dose-dependent activation”. In the data set with U937 cells [1] (2.25-9 nM, 4 h assay), the “DNA fragmentation activity at the same concentrations” value was “little activity”. In addition, the “internucleosomal DNA fragmentation” value with isolated U937 nuclei (agarose gel, 4 h) was “induced internucleosomal DNA fragmentation”. Besides, the ICAD/DFF45 cleavage result with ICAD/DFF45 is reported as “not cleaved”.
